Data: ChEMBL document CHEMBL1201862, “PubChem BioAssay data set” (2004)
Calls of active or inactive are those of the source.

Key:
[1] = molecular target: T1, Voltage-gated N-type calcium channel alpha-1B subunit/Amyloid beta A4 precursor protein-binding family A member 1 (Homo sapiens, UniProt Q00975+Q02410); format: protein assay
[2] = molecular target: T2, Small ubiquitin-related modifier 1 (Homo sapiens, UniProt P63165); assay: inhibitors of SUMO1 peptide binding, dose response, biochemical, fluorescence polarization, uHTS hits (AID 624382); format: functional; settings: read-out: IC50_Mean
T2 sequence (P63165 whole entry): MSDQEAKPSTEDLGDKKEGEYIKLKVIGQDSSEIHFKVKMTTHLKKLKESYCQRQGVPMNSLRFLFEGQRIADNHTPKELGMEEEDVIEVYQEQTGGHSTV

[3] = molecular target: T1, Voltage-gated N-type calcium channel alpha-1B subunit/Amyloid beta A4 precursor protein-binding family A member 1; format: protein assay; remark: listed apart in the source
[4] = molecular target: T2, Small ubiquitin-related modifier 1; assay: inhibitors of SUMO1 partner interactions, dose response, biochemical, FRET (AID 624383); format: functional; settings: read-out: IC50_Mean
[5] = cytotoxicity toward NIH3T3 fibroblasts, dose response, counter-screen, cell-based, ATP luminescence, mouse fibroblasts (AID 2010); format: functional;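 note: cells exposed to compound for about 90 hours before reading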
[6] = molecular target: T3, Microphthalmia-associated transcription factor (Homo sapiens, UniProt O75030); assay: TRPM1 promoter luciferase signal decrease, dose response, MITF inhibitor project, cell-based, SK-MEL-5, cherry-picked, set 3 (AID 493073); format: functional
T3 sequence (O75030 whole entry): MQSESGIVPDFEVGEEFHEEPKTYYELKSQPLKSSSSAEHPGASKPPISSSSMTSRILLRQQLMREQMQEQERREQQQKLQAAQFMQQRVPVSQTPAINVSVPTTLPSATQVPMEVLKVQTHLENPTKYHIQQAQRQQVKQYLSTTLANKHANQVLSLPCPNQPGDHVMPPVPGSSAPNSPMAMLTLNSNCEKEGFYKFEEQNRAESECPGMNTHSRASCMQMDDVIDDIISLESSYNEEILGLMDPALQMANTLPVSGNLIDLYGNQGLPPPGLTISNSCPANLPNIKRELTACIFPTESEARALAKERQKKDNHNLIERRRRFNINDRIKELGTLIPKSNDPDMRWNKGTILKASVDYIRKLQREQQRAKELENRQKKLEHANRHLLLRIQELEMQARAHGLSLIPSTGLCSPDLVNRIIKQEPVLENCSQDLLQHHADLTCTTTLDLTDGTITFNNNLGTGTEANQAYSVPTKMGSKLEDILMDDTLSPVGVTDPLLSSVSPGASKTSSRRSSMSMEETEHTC

[7] = inhibitors of intracellular T. cruzi replication, confirmation, NIH3T3 host cells, beta-gal luminescence (AID 2044); format: functional, cell-based;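 note: intracellular parasites grown in NIH/3T3 mouse fibroblasts as host cells; luminescent beta-galactosidase reporter signal from transgenic T. cruzi replicating inside host cells; inhibitors lower the luminescence signal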
[8] = molecular target: E3 ubiquitin-protein ligase XIAP (Homo sapiens, UniProt P98170); assay: Counter Screen using XIAP-Bir3 for Chemical Antagonists of Bir1/2 domains of IAP-family anti-apoptotic proteins. [Related pubchem assays (depositor defined):AID1018, AID1449, AID1514, AID1638, AID1749, AID1750, AID488957, AID488963]
Estrogen receptor = molecular target: T4, Estrogen receptor (Homo sapiens, UniProt P03372);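 note: potency for inhibiting coactivator peptide recruitment to the receptor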
T4 sequence (P03372 whole entry): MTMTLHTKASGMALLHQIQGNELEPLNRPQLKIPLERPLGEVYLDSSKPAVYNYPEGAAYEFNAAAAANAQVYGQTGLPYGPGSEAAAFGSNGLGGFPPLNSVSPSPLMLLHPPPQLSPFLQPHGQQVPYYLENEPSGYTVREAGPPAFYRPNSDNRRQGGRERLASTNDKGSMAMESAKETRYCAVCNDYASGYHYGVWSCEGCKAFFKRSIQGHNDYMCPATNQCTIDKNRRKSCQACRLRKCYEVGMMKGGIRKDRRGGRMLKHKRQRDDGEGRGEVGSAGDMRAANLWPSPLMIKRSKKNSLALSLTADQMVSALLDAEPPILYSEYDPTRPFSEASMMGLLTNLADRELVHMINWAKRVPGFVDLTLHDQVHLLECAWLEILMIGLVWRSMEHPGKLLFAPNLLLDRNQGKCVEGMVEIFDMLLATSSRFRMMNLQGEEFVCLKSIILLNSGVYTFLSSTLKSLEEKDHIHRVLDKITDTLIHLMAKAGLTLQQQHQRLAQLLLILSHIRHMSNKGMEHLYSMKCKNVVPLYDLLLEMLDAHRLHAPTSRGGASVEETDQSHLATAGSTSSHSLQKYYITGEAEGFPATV

HEK293 [9] = assay: cells; format: functional, cell-based; settings: Homo sapiens
HEK293 [10] = assay: cells; format: functional, cell-based; settings: Homo sapiens; remark: listed apart in the source
HEK293 [11] = assay: NOD2 signaling inhibitors in MDP-stimulated cells, cell-based, uHTS, luminescence (AID 2001); format: functional; settings: Homo sapiens
[12] = microbe, parasite or virus in culture; format: functional; settings: Mycobacterium tuberculosis
Protein RecA = molecular target: T5, Protein RecA (Mycobacterium tuberculosis, UniProt P9WHJ3); assay: Fluorescence Cell-Free Homogeneous Dose Retest to Identify Inhibitors of RecA-Intein Splicing Activity. [Related pubchem assays (depositor defined):AID2097, AID2223, AID489010, AID492950]; format: functional
T5 sequence (P9WHJ3 whole entry): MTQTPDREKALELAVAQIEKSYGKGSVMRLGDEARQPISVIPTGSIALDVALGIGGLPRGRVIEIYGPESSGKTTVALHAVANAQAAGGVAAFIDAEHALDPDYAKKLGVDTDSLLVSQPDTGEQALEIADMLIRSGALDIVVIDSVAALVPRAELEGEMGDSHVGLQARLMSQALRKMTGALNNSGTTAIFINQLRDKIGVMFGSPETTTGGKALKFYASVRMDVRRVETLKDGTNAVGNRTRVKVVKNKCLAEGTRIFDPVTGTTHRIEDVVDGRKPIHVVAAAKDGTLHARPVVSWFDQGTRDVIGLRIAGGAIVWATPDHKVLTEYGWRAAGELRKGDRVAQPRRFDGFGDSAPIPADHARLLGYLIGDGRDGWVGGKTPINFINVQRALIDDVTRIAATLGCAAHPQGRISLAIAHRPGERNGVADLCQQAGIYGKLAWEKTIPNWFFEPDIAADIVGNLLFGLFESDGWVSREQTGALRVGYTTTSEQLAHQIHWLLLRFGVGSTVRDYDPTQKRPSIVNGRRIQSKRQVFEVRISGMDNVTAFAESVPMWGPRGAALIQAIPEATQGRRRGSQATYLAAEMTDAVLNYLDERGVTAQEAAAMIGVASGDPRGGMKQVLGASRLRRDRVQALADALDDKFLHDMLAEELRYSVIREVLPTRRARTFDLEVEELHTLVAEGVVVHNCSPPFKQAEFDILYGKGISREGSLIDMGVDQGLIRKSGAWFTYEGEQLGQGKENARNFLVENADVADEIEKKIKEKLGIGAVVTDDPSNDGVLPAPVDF

[13] = molecular target: T6, Replicative DNA helicase DnaB (Mycobacterium tuberculosis, UniProt P9WMR3); assay: DnaB intein splicing inhibitors, dose response, biochemical, cell-free fluorescence (AID 449749); format: functional
T6 sequence (P9WMR3 whole entry): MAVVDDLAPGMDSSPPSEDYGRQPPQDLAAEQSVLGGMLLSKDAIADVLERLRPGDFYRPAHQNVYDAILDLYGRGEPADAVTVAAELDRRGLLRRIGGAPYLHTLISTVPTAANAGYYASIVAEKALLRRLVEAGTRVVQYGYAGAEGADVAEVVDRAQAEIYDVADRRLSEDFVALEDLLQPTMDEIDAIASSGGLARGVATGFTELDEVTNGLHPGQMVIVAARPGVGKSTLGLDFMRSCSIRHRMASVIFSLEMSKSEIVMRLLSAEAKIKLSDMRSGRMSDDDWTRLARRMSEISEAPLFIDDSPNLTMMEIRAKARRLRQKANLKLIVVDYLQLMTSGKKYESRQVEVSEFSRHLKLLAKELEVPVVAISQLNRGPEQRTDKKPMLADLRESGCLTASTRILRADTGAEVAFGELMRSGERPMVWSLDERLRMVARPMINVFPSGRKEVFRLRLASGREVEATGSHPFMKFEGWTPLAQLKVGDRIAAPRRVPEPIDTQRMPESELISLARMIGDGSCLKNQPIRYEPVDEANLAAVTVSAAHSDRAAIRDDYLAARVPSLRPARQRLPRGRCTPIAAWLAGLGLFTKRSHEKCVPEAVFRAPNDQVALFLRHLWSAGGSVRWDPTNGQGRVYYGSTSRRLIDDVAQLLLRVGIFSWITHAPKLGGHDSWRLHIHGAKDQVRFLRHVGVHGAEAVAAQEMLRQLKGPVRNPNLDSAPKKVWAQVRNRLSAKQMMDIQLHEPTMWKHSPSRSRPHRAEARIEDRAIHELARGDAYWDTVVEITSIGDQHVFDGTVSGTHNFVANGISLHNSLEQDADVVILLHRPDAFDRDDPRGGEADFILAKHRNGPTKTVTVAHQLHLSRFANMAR

[14] = molecular target: Nucleotide-binding oligomerization domain-containing protein 2 (Homo sapiens, UniProt Q9HC29); assay: NOD2 signaling inhibitors, cell-based, luminescence, uHTS, HEK293 (AID 1566); format: functional
HEK293 [15] = assay: NOD1 signaling inhibitors, primary screen, cell-based, luminescence, uHTS (AID 1578); format: functional; settings: Homo sapiens
HEK293 [16] = assay: cells; format: functional, cell-based; settings: Homo sapiens; remark: listed apart in the source
[17] = molecular target: T7, Alkaline phosphatase, tissue-nonspecific isozyme (Homo sapiens, UniProt P05186); assay: TNAP enzyme inhibition by screening hits, dose response, selectivity assay for mouse IAP inhibitor project, biochemical, human TNAP, uHTS hits (AID 488906); format: functional
T7 sequence (P05186 whole entry): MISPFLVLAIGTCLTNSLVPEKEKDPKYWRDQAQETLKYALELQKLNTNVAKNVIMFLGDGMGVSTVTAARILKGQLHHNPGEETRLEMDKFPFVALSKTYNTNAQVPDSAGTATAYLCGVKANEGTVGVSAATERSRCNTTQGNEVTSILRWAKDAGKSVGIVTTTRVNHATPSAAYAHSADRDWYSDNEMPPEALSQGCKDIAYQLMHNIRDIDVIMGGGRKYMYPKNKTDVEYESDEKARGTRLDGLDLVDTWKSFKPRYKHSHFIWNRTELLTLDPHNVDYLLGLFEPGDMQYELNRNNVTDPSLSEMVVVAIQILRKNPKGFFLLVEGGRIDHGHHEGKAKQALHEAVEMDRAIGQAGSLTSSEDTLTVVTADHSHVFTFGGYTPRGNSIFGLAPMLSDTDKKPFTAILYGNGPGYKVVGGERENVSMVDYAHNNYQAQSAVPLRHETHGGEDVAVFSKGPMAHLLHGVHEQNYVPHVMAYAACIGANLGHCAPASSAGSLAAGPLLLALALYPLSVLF

[18] = molecular target: Intestinal-type alkaline phosphatase (Mus musculus, UniProt P24822); assay: PubChem AID 488785; format: functional
Chain of Intestinal-type alkaline phosphatase (Mus musculus, UniProt P24822) (P24822 whole entry): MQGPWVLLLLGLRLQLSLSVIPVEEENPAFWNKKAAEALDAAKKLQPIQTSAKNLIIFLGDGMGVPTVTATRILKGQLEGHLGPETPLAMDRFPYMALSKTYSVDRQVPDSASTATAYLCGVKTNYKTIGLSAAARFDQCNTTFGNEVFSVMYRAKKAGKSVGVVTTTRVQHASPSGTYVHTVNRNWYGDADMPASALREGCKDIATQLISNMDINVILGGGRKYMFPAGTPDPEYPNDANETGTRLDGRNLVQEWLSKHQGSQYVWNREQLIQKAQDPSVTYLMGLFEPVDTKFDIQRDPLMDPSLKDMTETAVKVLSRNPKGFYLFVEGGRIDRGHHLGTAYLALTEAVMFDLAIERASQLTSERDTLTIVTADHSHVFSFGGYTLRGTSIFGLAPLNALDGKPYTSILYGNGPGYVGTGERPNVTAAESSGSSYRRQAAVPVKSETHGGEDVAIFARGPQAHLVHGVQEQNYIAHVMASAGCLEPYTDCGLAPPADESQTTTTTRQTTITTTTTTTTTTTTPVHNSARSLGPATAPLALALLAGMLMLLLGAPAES

[19] = molecular target: Intestinal-type alkaline phosphatase (Homo sapiens, UniProt P09923); assay: inhibition of human intestinal alkaline phosphatase – biochemical, dose response (AID 488876); format: functional
Chain of Intestinal-type alkaline phosphatase (Homo sapiens, UniProt P09923) (P09923 whole entry): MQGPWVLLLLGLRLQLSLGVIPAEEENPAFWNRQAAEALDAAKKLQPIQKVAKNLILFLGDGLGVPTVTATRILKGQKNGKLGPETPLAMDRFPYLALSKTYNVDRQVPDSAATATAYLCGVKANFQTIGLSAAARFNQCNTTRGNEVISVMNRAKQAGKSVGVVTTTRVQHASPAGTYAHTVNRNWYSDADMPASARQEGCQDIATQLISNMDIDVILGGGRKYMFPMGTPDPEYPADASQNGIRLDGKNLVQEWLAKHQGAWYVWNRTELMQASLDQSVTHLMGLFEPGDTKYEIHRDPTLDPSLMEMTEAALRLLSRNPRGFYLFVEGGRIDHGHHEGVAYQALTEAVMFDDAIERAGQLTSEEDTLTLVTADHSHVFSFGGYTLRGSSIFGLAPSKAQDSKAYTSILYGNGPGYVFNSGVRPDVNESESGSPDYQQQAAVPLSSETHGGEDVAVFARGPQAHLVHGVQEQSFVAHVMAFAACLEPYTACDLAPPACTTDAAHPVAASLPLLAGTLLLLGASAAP

Paired box protein Pax-8 = Paired box protein Pax-8 (Homo sapiens, UniProt Q06710); assay: inhibitors of PAX8-driven TPO luciferase reporter, dose response, RMG-I cells, cherry-pick (AID 687027); format: functional, cell-based;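 note: luciferase reporter driven by Pax8 target thyroperoxidase promoter measured by SteadyGlo luminescence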
Chain of Paired box protein Pax-8 (Q06710 whole entry): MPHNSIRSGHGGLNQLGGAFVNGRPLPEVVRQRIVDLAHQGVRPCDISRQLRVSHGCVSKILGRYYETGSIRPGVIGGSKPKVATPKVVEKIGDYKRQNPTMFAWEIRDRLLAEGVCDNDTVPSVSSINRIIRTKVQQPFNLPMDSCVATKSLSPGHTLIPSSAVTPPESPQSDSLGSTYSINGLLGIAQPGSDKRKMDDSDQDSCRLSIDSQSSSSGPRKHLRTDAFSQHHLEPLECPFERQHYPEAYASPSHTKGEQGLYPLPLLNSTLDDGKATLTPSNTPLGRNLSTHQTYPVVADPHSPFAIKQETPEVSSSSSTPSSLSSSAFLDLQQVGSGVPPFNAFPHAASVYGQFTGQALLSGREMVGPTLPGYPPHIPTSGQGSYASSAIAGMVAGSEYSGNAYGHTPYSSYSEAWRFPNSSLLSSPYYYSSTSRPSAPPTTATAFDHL

HT-1080 = assay: cytotoxicity in HT1080 fibrosarcoma cells, cell-based, fluorescence readout (AID 620); format: functional; settings: Homo sapiens
[20] = molecular target: Luciferin 4-monooxygenase (Photinus pyralis, UniProt P08659); assay: Counter Screen for Luciferase-based Assay Positives. [Related pubchem assays: 620, 618, 411 ]
[21] = non-specific cell cytotoxicity, dose response, cytotoxicity control for PAX8 inhibitor project, plate reader, dry powder samples (AID 743021); format: functional, cell-based

T1 sequence (Q00975 whole entry): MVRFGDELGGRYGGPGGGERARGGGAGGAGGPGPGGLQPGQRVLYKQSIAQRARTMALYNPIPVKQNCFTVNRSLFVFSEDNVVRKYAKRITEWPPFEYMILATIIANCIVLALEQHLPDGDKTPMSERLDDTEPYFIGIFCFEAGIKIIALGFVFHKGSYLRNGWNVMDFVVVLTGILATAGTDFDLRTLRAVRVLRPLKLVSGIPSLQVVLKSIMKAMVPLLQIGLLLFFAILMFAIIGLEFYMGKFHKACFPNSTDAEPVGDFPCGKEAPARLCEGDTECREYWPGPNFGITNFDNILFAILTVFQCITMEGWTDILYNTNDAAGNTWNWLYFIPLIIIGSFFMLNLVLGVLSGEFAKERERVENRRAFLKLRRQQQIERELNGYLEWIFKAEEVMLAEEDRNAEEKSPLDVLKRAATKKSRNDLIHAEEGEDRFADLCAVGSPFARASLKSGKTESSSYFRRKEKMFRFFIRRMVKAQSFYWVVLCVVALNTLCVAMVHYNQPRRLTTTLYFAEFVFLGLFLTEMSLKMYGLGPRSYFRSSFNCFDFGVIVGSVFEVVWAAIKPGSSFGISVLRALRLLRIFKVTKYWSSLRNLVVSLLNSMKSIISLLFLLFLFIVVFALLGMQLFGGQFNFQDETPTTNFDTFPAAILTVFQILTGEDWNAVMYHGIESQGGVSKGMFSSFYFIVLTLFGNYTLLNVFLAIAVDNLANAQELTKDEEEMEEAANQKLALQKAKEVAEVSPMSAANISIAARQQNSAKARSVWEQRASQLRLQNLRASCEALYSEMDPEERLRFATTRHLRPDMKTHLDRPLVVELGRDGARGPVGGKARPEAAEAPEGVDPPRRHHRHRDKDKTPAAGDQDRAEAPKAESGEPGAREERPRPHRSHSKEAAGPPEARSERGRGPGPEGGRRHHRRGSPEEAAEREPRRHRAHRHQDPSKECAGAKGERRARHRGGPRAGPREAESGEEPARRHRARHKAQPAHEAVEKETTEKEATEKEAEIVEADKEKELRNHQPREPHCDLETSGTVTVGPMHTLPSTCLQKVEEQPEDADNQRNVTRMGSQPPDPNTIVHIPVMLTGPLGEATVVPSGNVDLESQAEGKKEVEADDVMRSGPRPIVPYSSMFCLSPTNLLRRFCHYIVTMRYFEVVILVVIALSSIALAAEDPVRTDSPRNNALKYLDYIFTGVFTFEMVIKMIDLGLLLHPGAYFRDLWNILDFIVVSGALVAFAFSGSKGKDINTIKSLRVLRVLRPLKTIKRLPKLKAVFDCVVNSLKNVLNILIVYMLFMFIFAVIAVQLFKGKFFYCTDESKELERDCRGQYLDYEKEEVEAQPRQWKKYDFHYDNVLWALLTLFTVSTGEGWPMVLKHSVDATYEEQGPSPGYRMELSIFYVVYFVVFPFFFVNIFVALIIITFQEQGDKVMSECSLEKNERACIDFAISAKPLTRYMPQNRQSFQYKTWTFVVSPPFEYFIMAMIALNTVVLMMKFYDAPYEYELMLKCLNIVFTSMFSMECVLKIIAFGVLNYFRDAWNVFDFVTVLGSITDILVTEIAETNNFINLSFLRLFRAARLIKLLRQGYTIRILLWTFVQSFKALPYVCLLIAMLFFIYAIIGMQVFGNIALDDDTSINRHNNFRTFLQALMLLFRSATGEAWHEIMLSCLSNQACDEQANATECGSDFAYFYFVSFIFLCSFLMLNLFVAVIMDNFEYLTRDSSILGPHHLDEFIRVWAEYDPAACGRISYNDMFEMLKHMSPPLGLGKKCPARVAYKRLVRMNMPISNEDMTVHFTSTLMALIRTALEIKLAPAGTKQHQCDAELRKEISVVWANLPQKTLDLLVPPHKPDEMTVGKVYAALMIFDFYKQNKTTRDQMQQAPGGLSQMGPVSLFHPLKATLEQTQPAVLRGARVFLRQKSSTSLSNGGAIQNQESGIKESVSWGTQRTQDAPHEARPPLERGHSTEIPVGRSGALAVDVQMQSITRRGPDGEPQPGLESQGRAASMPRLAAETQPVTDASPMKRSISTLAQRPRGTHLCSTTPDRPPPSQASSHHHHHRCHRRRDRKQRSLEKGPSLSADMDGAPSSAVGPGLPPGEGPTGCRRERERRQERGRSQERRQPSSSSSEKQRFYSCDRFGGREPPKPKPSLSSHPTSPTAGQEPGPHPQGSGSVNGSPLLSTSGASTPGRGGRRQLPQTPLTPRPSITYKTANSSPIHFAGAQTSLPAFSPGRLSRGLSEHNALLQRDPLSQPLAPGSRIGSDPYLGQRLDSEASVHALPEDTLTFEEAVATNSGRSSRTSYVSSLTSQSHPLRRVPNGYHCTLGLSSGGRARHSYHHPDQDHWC
T1 sequence (Q02410 whole entry): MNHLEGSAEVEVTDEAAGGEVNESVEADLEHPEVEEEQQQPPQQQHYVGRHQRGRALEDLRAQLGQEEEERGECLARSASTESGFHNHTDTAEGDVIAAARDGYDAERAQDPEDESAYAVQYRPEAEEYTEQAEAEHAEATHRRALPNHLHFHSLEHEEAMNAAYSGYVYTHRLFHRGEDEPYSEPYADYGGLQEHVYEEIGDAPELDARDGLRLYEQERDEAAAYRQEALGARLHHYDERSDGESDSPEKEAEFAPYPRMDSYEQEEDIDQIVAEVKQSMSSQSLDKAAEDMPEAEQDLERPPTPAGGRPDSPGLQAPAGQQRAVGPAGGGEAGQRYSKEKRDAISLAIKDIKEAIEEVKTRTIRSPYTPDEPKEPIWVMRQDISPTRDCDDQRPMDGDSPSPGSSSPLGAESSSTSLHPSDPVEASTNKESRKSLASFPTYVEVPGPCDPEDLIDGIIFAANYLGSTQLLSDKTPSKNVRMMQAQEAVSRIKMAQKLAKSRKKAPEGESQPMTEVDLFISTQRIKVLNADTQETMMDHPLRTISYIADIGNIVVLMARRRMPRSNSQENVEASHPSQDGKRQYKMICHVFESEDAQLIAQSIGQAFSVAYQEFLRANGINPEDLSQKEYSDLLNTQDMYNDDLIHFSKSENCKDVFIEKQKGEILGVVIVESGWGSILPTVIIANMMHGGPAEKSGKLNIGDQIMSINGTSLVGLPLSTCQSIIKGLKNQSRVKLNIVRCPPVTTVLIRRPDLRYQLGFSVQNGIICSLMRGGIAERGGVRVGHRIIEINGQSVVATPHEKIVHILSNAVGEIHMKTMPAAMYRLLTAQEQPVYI

CC(OC(=O)c1ccc(NC(=O)CC#N)cc1)C(=O)Nc1ccc(Oc2ccccc2)cc1 (configuration not stated)
IC50 [1]: 8.36 µM (active)
IC50 [2]: > 66.6 µM (inactive)
IC50 [3]: > 50 µM (inactive)
IC50 [4]: 17.1 µM (active)

CCOC(=O)c1nnn(-c2ccc([N+](=O)[O-])cc2[N+](=O)[O-])c1C
EC50 [5]: > 60 µM (not active)
AC50 [6]: 8.85 µM (active)
EC50 [7]: 0.647 µM (active)

O=C(NCc1ccc(Cl)cc1)c1cc(-c2cccs2)on1
IC50 [8]: > 20 µM (inactive)
IC50 (Estrogen receptor): > 50 µM (not active)

COc1ccc(-n2nc3c(c2NC(=O)CCl)CSC3)cc1
IC50 (HEK293 [9]): > 20 µM (inactive)
IC50 (HEK293 [10]): 7.89 µM (active)
IC50 (HEK293 [11]): 14.8 µM (inactive)
CC50 [12]: 18 µM (active)
EC50 (Protein RecA): > 380 µM (inconclusive)
AC50 [13]: 13.6 µM (active)
EC50 [14]: > 20 µM (inactive)
EC50 (HEK293 [15]): 13.1 µM (active)
IC50 (HEK293 [16]): > 20 µM (inactive)

C[C@H]1CCC[C@]2(C)C[C@H]3OC(=O)C(CN4CCCCCC4)[C@H]3C=C12 (some centres not stated)
AC50 [6]: 13.9 µM (active)

O=C(CCNS(=O)(=O)c1ccc2[nH]c(=O)oc2c1)Nc1ccccc1
IC50 [17]: 17.8 µM (active)
IC50 [18]: 2.4 µM (active)
IC50 [19]: 26.9 µM (active)

Cc1cc(C)c2c(N)c(C(=O)Nc3ncc(C)s3)sc2n1
AC50 (Paired box protein Pax-8): 2.92 µM (active)
EC50 (HT-1080): > 50 µM (not active)
EC50 [20]: < 0.2 µM (active)
AC50 [6]: 1.09 µM (active)
AC50 [21]: 36.7 µM (active)
